According to patent publication US6673555B1, “Methods of using SCAP antagonists” (SmithKline Beecham Corporation, priority 1999, dated 2004):

Assays:
[1] = tested on: hamster LDL-receptor mRNA; test: LDL-receptor mRNA by real-time PCR in livers of cholesterol-fed hamsters; type: in vivo, Syrian golden hamster; settings: 5 mg/kg oral once a day for 3 days, versus vehicle, FIG. 6
Method: (§1) The in vivo activity of SCAP antagonist was determined in the golden Syrian hamster previously fed with a cholesterol rich diet. Male Syrian golden hamsters (Janvier, France) were kept on a 12 h light-dark cycle. Animals (7 weeks age, 150 g) were fed for 2 weeks with a high cholesterol diet containing 0.2% cholesterol plus 10% coconut oil. Animals (n=5 per group) were then treated orally with vehicle, (0.5% methylcellulose, 5% Tween 80) or Example 1 at 1, 5 or 20 mg/kg in the vehicle, once a day for 3 days.
4 hours after the last administration, animals were sacrificed and livers were immediately dropped into liquid nitrogen. Total RNA was extracted using RNAqous kit (Ambion) according to manufacturer instruction. […] The expression of the hamster LDL-receptor was determined using the following primers: SEQ ID NO: 12 […] and SEQ ID NO: 13 […]. […] Each sample was quantified in duplicates and the cycle threshold (Ct) were calculated. For each animal the difference between Ct values for the LDL-receptor and Ribosomal RNA were calculated. The quantity of LDL-receptor mRNA relative to Ribosomal RNA reference was calculated as 2^−ΔΔCt and expressed in arbitrary units.
Cholesterol-fed hamsters were treated with Example 1 (5 mg/kg) or vehicle for 3 days. LDL-receptor mRNA in the liver was quantified by real-time PCR using Ribosomal 18S RNA as internal reference.

[2] = tested on: golden Syrian hamster previously fed with a cholesterol rich diet; test: Lipoprotein and lipid in sera of cholesterol-fed hamsters (ultracentrifugation, enzymatic assays, SDS-PAGE); type: in vivo; settings: for apoB100: VLDL and LDL fraction; for reduction of LDL-cholesterol / reduction of triglycerides: Table 1
Method: as §1
(§2) 4h after the last treatment, animals were anesthetized, blood was collected and serum was prepared by centrifugation. Total cholesterol was determined using a enzymatic assay kit (Biomerieux, France). Lipoproteins were separated by ultracentrifugation using a single KBr concentration (density 1.063). Cholesterol and triglycerides associated with the upper phase (corresponding to VLDL +LDL lipoproteins) and cholesterol associated with the lower phase (corresponding to the HDL fraction) were determined using the enzymatic assays kits. Apolipoprotein B100 associated with VLDL and LDL lipoprotein fraction were analysed by SDS-PAGE and Coomassie blue staining. Lipoproteins were also separated by high-performance gel filtration chromatography with on-line colorimetric determination of cholesterol. Lipoprotein separation was performed on a single superose 6HR column (Pharmacia) with an elution buffer consisting of 10 mM tris, 1 mM EDTA and 150 mM NaCl adjusted at pH 7.4. Cholesterol was measured on line using the RTU enzymatic assay (Biomerieux). The column was calibrated using human lipoproteins and the various peaks in cholesterol profiles are designated VLDL, LDL and HDL for simplicity.
(§3) Cholesterol-fed animals were treated for 3 days with Example 1 at 1 and 20 mg/kg. […] In another experiment, lipoproteins were separated by gel filtration and cholesterol content was quantified on-line. As shown in FIG. 7 Example 1 at […] strongly reduces atherogenic particles: 79% reduction of VLDL cholesterol and 60% reduction of LDL-cholesterol.

human SREBP-2 = test: Western blot analysis of the proteolytic maturation of SREBP-2 in HepG2 cells; type: cell-based; settings: 1 μM, 18 hours
Method: The involvement of the SREBP pathway was confirmed by Western Blot immunodetection of precursor and mature forms of human SREBP-2.
HepG2 cells were seeded in 150 cm^2 flasks at 8×10^6 cells and transfected with 10 μg of pTK-HSV-BP2 using Fugene 6 and incubated for 20 h before addition of 1 μM of example 1 or vehicle. After 18 h of incubation, membrane fraction and nuclear extracts were obtained using the method described by Hua, X. et al., J. Biol. Chem. 270: 29422-27 (1995).
Proteins (20 μg/load) were separated on 8% SDS-PAGE and blotted onto BA 83 nitrocellulose membrane (Schleisher & Schuell). The HSV tag present in the amino terminus of SREBP-2 was detected using 0.2 μg/ml of anti-HSV antibodies after saturation with 10% non-fat milk.
HepG2 cells were transfected (FIG. 4, lane b-e) or not transfected (FIG. 4, lane a) with pTK-HSV-BP2 vector encoding human SREBP-2 preceded by HSV tag. Cells were treated for 18 hours with Example 1 (1 μM) (lane c, d) or vehicle (lane a, b, e) and nuclear extract (lane d, e) and membrane (lane a-c) were isolated and analysed by western blotting using anti-HSV antibodies.

[3] = tested on: golden Syrian hamster previously fed with a cholesterol rich diet; test: Lipoprotein cholesterol profile by gel filtration in cholesterol-fed hamsters (FIG. 7); type: in vivo; settings: 5 mg/kg oral once a day for 3 days
Method: as §1, §2, §3

[4] = 1 mg/kg oral once a day for 3 days
[5] = 1 mg/kg oral once a day for 3 days, serum 4h after last treatment
[6] = 20 mg/kg oral once a day for 3 days
[7] = 20 mg/kg oral once a day for 3 days, serum 4h after last treatment

melting point: 250 °C
SMILES: CCOc1cc(CC)ccc1C1CCN(CCCCNC(=O)c2ccc(NC(=O)c3ccc(Cl)cc3)cc2)CC1 [Example 1, 4-(4-Chloro-benzoylamino)-N-{4-[4-(2-ethoxy-4-ethyl-phenyl)-piperidin-1-yl]-butyl}-benzamide]
LDL-receptor mRNA in the liver [1]: increased mRNA for LDL-receptor
CHOLESTEROL HDL chol, % of control [2, 4]: 123%
CHOLESTEROL LCLchol, % of control [2, 4]: 50%
CHOLESTEROL TOTAL, % of control [2, 4]: 79%
Triglycerides TOTAL, % of control [2, 4]: 37% (p < 0.001)
apoB100, % of control [2, 4]: 62% (p < 0.005)
apoB100 [2, 4]: 3.1 ± 0.4 S.U.
CHOLESTEROL HDL chol [2, 5]: 1.5 ± 0.1 g/L
CHOLESTEROL LCLchol [2, 5]: 0.95 ± 0.2 g/L
CHOLESTEROL TOTAL [2, 5]: 3.1 ± 0.3 g/L
Triglycerides TOTAL [2, 5]: 1.3 ± 0.2 g/L
reduction of LDL-cholesterol ([2]; 1 mg/kg, 3 days): 50%
reduction of triglycerides ([2]; 1 mg/kg, 3 days): 63%
CHOLESTEROL HDL chol, % of control [2, 6]: 113% NS
CHOLESTEROL LCLchol, % of control [2, 6]: 17%
CHOLESTEROL TOTAL, % of control [2, 6]: 55%
Triglycerides TOTAL, % of control [2, 6]: 24% (p < 0.001)
apoB100, % of control [2, 6]: 25% (p < 0.005)
apoB100 [2, 6]: 1.2 ± 0.2 S.U.
CHOLESTEROL LCLchol [2, 7]: 0.3 ± 0.1 g/L
CHOLESTEROL TOTAL [2, 7]: 2.1 ± 0.3 g/L
Triglycerides TOTAL [2, 7]: 0.8 ± 0.02 g/L
reduction of LDL-cholesterol ([2]; 20 mg/kg, 3 days): 83%
reduction of triglycerides ([2]; 20 mg/kg, 3 days): 76%
effect on Apolipoprotein B100 ([2]; 1 and 20 mg/kg, 3 days): reduced to the same extent
effect on HDL-cholesterol ([2]; 1 and 20 mg/kg, 3 days): unaffected
amount of SREBP-2 precursor form in the membrane (human SREBP-2; HepG2 transfected with pTK-HSV-BP2, FIG. 4): reduces the amount of SREBP-2 precursor form present in the membrane
amount of mature SREBP-2 in the nucleus (human SREBP-2; HepG2 transfected with pTK-HSV-BP2, nuclear extract, FIG. 4): strongly increases the amount of mature SREBP-2 in the nucleus
increase of cholesterol contained in HDL particles [3]: 25%
reduction of LDL-cholesterol [3]: 60%
reduction of VLDL cholesterol [3]: 79%
